# Results published in patent US8507484B2, “Preventive and/or therapeutic agent for neutrophilic inflammatory diseases” (Kyowa Hakko Kirin Co., Ltd., priority 2004, dated 2013).
# Where a name gives a salt, the structure may show the parent alone.
# Legend:
# [1] = target: T1, human GPR4 (Homo sapiens, UniProt P46093); assay: GPR4 antagonism, luciferase reporter assay in human GPR4 assay cells; assay type: cell-based; settings: 1 μmol/L test compound, 10 nmol/L 17β-estradiol, 6 hours, firefly luciferase reporter; for inhibition at 1 µM: read-out: Inhibition rate (%)
# T1 construct: expressed in transfected cells; expression induced by 17β-estradiol
# T1 sequence (P46093 whole entry): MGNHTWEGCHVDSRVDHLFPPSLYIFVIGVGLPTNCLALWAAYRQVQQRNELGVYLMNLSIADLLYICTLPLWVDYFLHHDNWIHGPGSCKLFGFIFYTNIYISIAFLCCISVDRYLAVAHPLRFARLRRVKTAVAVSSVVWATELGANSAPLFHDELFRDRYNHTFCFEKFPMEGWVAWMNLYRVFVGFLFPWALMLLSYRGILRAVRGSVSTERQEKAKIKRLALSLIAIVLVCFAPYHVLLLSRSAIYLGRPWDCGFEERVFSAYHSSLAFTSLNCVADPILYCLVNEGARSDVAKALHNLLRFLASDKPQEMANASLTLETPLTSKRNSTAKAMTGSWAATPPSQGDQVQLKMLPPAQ
# Experimental: Assay cells for human GPR4 were constructed according to the method descried in WO03/087366. By using the assay cells, the constitutive activity of human GPR4 can be detected by activity of a reporter (firefly luciferase).
# Plasmid pAGal9-GPR4 for inducible expression of human GPR4 (2 μg: WO03/087366) and reporter plasmid pACREpluc (2 μg; WO03/087366) were co-transferred into 6×10^6 cells of KJMGER8 (WO03/087366) by electroporation. The resultant transformant was suspended in 8 mL of a RPMI1640-ITPSG medium [RPMI medium (Nissui Pharmaceutical Co., Ltd.) containing 6 mmol/L of L-glutamine (Invitrogen Corp.), 100 units/ml of penicillin (Invitrogen Corp.), 100 μg/ml of streptomycin (Invitrogen Corp.), 10 mmol/L of N-2-hydroxyethylpiperazine-N′-2-ethanesulfonic acid (HEPES) (Nacalai Tesque Inc.), 3 μg/ml of insulin (Sigma Co. Ltd.), 5 μg/ml of transferrin (Sigma Co. Ltd.), 5 mmol/L of sodium pyruvate (Wako Pure Chemical Industries, Ltd.), 125 nmol/L of selenious acid (Nacalai Tesque Inc.), and 1 mg/ml of galactose (Nacalai Tesque Inc.)], followed by culture in a CO^2 incubator at 37° C. for 24 hours. After the culture, blasticidin S (Funakoshi Co., Ltd., 2.0 μg/ml), hygromycin B (Wako Pure Chemical Industries, Ltd., 300 μg/ml), and geneticin (Nacalai Tesque Inc., 500 μg/ml) were added to the culture solution, followed by further culture for 14 days to prepare a stable transformant (referred to as “GPR4 assay cells”). The transformant was subcultured in a RPMI1640-ITPSG medium containing blastocidin S (Funakoshi Co., Ltd., 2.0 μg/ml), hygromycin B (manufactured by Wako Pure Chemical Industries, Ltd., 300 μg/ml), and geneticin (Nacalai Tesque Inc., 500 μg/ml).
# Similarly, control plasmid pAGal9-nd (2 μg; WO03/087366) and reporter plasmid pACREpluc (2 μg; WO03/087366) were co-transferred in KJMGER8 to prepare a stable transformant (referred to as “control cells”).
# The resulting human GPR4 assay cells (expressing GPR4 by stimuli of 17β-estradiol) were seeded onto a white plate at a concentration of 10^5 cells per well. Then, 17β-estradiol (Sigma Co. Ltd.), which was diluted with a medium so that the concentration in the reaction solution was 10 nmol/L, and 1 μmol/L of test compound were added to each well, followed by reaction in a 5% CO2 incubator at 37° C. for 6 hours. Then, a Steady Glo Luciferase Assay System (Promega Co., Ltd.) solution was added to terminate the reaction, and the quantity of light emitted per second was measured by a TOP count (Packard, Meriden, Conn., USA).
# The activity (GPR4 antagonism) of the test compound was shown by an inhibition rate calculated on the basis of counts (counts per second) in the presence or absence of 17β-estradiol according to the following equation:
# [formula] wherein A, B, and C represent the following values: […]
# A: counts when 17β-estradiol and test compound were added
# B: counts when neither 17β-estradiol nor test compound was added
# C: counts when only 17β-estradiol was added
# [2] = tested on: LPC-induced neutrophil infiltration into airway; assay: Inhibitory activity on LPC-induced neutrophil infiltration into airway (Test Example 3); assay type: in vivo; settings: 10 mg/kg orally 1 hour before intratracheal LPC; BALF 6 hours after LPC; male BALB/c mice
# Experimental: Male BALB/c mice of 7-week old were intratracheally administered with 0.1 mL of a 1 mg/mL LPC solution prepared by dissolving in a 0.1% aqueous bovine serum albumin solution or a 0.1% aqueous bovine serum albumin solution (negative control group). Six hours after, bronchoalveola lavage was conducted, and the neutrophil infiltration in the recovered BALF was measured. In addition, Compound 118 or Compound 160 was suspended in a 0.5% aqueous methyl cellulose solution (solvent), and 10 mg/kg of the resultant suspension was orally administered to the mice 1 hour before LPC administration. In a […] control group, the solvent was administered instead of the test compound suspension. The infiltration of neutrophils was measured by measuring the number of cells in the recovered BALF with an automatic blood counter (Celltac α MEK-6158, Nihon Kohden Corporation, Tokyo) and then counting the number of neutrophils under a microscope using a smear prepared with Cytospin 3 (Shandon, Inc., Pittsburgh, Pa., USA). The number of neutrophils was calculated by multiplying the total number of cells by the percentage of the neutrophils. In this test, five mice per group were used for Compound 118, and six mice per group were used for Compound 160.
# [3] = tested on: LPC-induced neutrophil infiltration into airway; assay: Inhibitory activity on LPC-induced neutrophil infiltration into airway (Test Example 2); assay type: in vivo; settings: 100 mg/kg orally 1 hour before intratracheal LPC; BALF 6 hours after LPC; male BALB/c mice
# Experimental: male BALB/c mice of 7-week old were intratracheally administered with 0.1 ml of a 1 mg/mL LPC solution prepared by dissolving in a 0.1% aqueous bovine serum albumin solution or a 0.1% aqueous bovine serum albumin solution (negative control group). Six hours after, bronchoalveola lavage was conducted, and the neutrophil infiltration in the recovered BALF was measured. In addition, Compound 53 or Compound 81 was suspended in a 0.5% aqueous methyl cellulose solution (solvent), and 100 mg/kg of the resultant suspension was orally administered to the mice 1 hour before LPC administration. In a […] control group, the solvent was administered instead of the test compound suspension. The infiltration of neutrophils was measured by measuring the number of cells in the recovered BALF with an automatic blood counter (Celltac α MEK-6158, Nihon Kohden Corporation, Tokyo) and then counting the number of neutrophils under a microscope using a smear prepared with Cytospin 3 (Shandon, Inc., Pittsburgh, Pa., USA). The number of neutrophils was calculated by multiplying the total number of cells by the percentage of the neutrophils. In this test, six mice per group were used for Compound 53, and six or seven mice per group were used for Compound 81.
compound,measurement,setting,value
"Cc1cc(C)c2nc(C)n(Cc3ccc(NCC4CCN(C5CCOCC5)CC4)cc3)c2n1 [Compound 158, 4-[4-(2,5,7-Trimethyl-3H-imidazo[4,5-b]pyridin-3-ylmethyl)phenylamino]methyl-1-(4-tetrahydropyranyl)piperidine]",inhibition at 1 µM,[1],83%
"CCc1nc2c(C)cc(C)nc2n1Cc1ccc(Nc2ccccc2)cc1 [Compound 97, {4-(2-Ethyl-5,7-dimethylimidazo[4,5-b]pyridin-3-ylmethyl)phenyl}phenylamine]",inhibition at 1 µM,[1],45%
"CCc1nc2c(C)cc(C)nc2n1Cc1ccc(N[C@H]2CC[C@H](C(=O)NCCN3CCCC3)CC2)cc1 [Compound 118, trans-4-[4-(2-Ethyl-5,7-dimethyl-3H-imidazo[4,5-b]pyridin-3-ylmethyl)phenylamino]cyclohexanecarboxylic acid [2-(pyrrolidin-1-yl)ethyl]amide]",suppression of increase in the number of neutrophils in BALF as compared with the positive control group,[2],60%
same,inhibition at 1 µM,[1],97%
"CCc1nc2c(C)cc(C)nc2n1Cc1ccc(NCC2CCNCC2)cc1 [Compound 143, 4-[4-(2-Ethyl-5,7-dimethyl-3H-imidazo[4,5-b]pyridin-3-ylmethyl)phenylamino]methylpiperidine]",inhibition at 1 µM,[1],97%
CCc1nc2c(C)cc(C)nc2n1Cc1cccc(Nc2ccccc2)c1 [Compound 98],Inhibition rate (%),[1],37%
CCc1nc2c(C)cc(C)nc2n1Cc1ccc(NC(=O)c2cccc3ccccc23)cc1 [Compound 53],suppression of increase in the number of neutrophils in BALF as compared with the positive control group,[3],47%
same,Inhibition rate (%),[1],74%
"Cc1cc(C)c2nc(C)n(Cc3ccc(NCC4CCN(C5CCN(C)CC5)CC4)cc3)c2n1 [Compound 160, 4-[4-(2,5,7-Trimethyl-3H-imidazo[4,5-b]pyridin-3-ylmethyl)phenylamino]methyl-1-(1-methylpiperidin-4-yl)piperidine]",suppression of increase in the number of neutrophils in BALF as compared with the positive control group,[2],74%
"CCc1nc2c(C)cc(C)nc2n1Cc1ccc(C(=O)c2ccccc2)cc1 [Compound 1, 4-(2-Ethyl-5,7-dimethylimidazo[4,5-b]pyridin-3-ylmethyl)benzophenone]",melting point,,98 °C
same,inhibition at 1 µM,[1],31%
"CCc1nc2c(C)cc(C)nc2n1Cc1cccc(C(=NO)c2cccc(CN3CCCC3)c2)c1 [Compound 24, 1-(3-{[3-(2-Ethyl-5,7-dimethylimidazo[4,5-b]pyridin-3-ylmethyl)phenyl]hydroxyiminomethyl}benzyl)pyrrolidine]",melting point,,231 to 236 °C
same,inhibition at 1 µM,[1],34%
CCc1nc2c(C)cc(C)nc2n1Cc1ccc(NC(=O)OC(C)(C)C)cc1 [Compound 81],suppression of increase in the number of neutrophils in BALF as compared with the positive control group,[3],42%
same,Inhibition rate (%),[1],77%
CCc1nc2c(C)cc(C)nc2n1Cc1cnc(Nc2ccccc2)nc1 (as salt: hydrochloride),melting point,,146 to 150 °C
